Source: US20210052701A1, “Methods of Treating Vascular Leakage Using CXCL12 Peptides” (The Medical College of Wisconsin, Inc., priority 2018, published 2021)
Entries after “also recorded” stand apart in the source; their conditions may differ.

How the values were obtained:
[1] = tested on: HULEC-5a; experiment: Effects of CXCL12 and ubiquitin on thrombin-induced impairment of HULEC-5a monolayer permeability; assay type: cell-based, human; details: thrombin 50 nM, after 10 min 50 nM ligand
Method: FIGS. 4A-4D show effects of CXCL12 and ubiquitin on thrombin-induced impairment of HULEC-5a monolayer permeability. (A) HULEC-5a were grown to a confluent monolayer on collagen-coated permeable membranes and then exposed to different concentration of thrombin for 10 min, followed by the addition of FITC-dextran. Endothelial permeability was assessed by measuring the amount of FITC-dextran that permeated through the cell monolayer. No cells: 100% permeability. RFU: Relative fluorescence units. N=3 in quadruplicate. (B) Dose-response curves for thrombin-induced permeability, data from A. 100% permeability=permeability in the absence of HULEC-5a. Open squares: Permeability at t=55 min. Light grey squares: Permeability at t=135 min. Dark grey squares: Permeability at t=255 min. […] Endothelial permeability was assessed by measuring the amount of FITC-dextran that permeated through the cell monolayer. RFU: Relative fluorescence units. […]
In vitro vascular permeability assays—Permeability assays were obtained from Millipore (ECM642) and performed as per manufacturer's instructions. […] Fluorescein isothiocyanate (FITC)-dextran (20 μg/mL) was then added on top of the monolayer and the amount of FITC-dextran that permeated through the monolayer was quantified by measuring fluorescence in a Synergy 2 Multi-mode Microplate Reader (BioTek, Winooski, Vt.) at various time points over a 255 min time period.

[2] = tested on: hPPAEC; experiment: In vitro vascular permeability assay (FITC-dextran), hPPAEC monolayer, CXCR4/ACKR3 ligands without thrombin; assay type: cell-based, human; details: 50 nM ligand for 10 min, then FITC-dextran; no thrombin
Method: FIGS. 1A-1B show expression of CXCR4, ACKR3 and CXCR4:ACKR3 heteromers on hPPAEC and effects of CXCR4/ACKR3 ligands on hPPAEC monolayer permeability. (A) Detection of CXCR4, ACKR3 and CXCR4:ACKR3 heteromers on hPPAEC by PLA. Typical PLA images for the detection of individual receptors and CXCR4:ACKR3 heteromers. Images show merged PLA/40,6-diamidino-2-phenylindole dihydrochloride (DAPI) signals. Ctrl: Omission of one secondary antibody. (B) hPPAEC were grown to a confluent monolayer on collagen-coated permeable membranes. Cells were then exposed to vehicle or 50 nM of CXCR4/ACKR3 ligands for 10 minutes, as indicated, followed by the addition of FITC-dextran. Endothelial permeability was assessed by measuring the amount of FITC-dextran that permeated through the cell monolayer. N=3 in quadruplicate. No cells: 100% permeability, open squares. RFU: Relative fluorescence units. *: p<0.05 vs. vehicle (2-way ANOVA/Bonferroni's multiple comparison post hoc test).
Cells and cell lines—Human primary pulmonary artery endothelial cells (hPPAEC) (ATCC, PCS-100-022) and the human lung microvascular endothelial cell line HULEC-5a (ATCC, CRL-3244) were cultured in vascular cell basal medium (ATCC, PCS-100-030) with endothelial cell growth kit-VEGF (ATCC, PCS-100-041). The HTLA cell line, a HEK293 cell line stably expressing a tTA-dependent luciferase reporter and a β-arrestin2-TEV fusion gene, was generously provided by the laboratory of Dr. Bryan Roth and maintained in high glucose Dulbecco's Modified Eagle's Medium supplemented with 10% (vol/vol) FBS, 1× non-essential amino acids, 100 U/mL penicillin, 100 μg/mL streptomycin, 50 μg/mL hygromycin B, and 2 μg/mL puromycin. All cells were cultured at 37° C., 5% CO2 in a humidified atmosphere.
In vitro vascular permeability assays—Permeability assays were obtained from Millipore (ECM642) and performed as per manufacturer's instructions. In brief, 96-well collagen-coated permeability assay plates were pre-hydrated for 15 min, 5×10^5 cells were seeded on each well and grown to a confluent monolayer for 48 hours. Fluorescein isothiocyanate (FITC)-dextran (20 μg/mL) was then added on top of the monolayer and the amount of FITC-dextran that permeated through the monolayer was quantified by measuring fluorescence in a Synergy 2 Multi-mode Microplate Reader (BioTek, Winooski, Vt.) at various time points over a 255 min time period.

[3] = target: T1, CXCR4 (Homo sapiens, UniProt P61073); experiment: Presto-Tango β-arrestin 2 recruitment assay for CXCR4; assay type: cell-based
T1 construct: host or cells: HTLA cells (HEK293 line stably expressing a tTA-dependent luciferase reporter and a β-arrestin2-TEV fusion gene)
T1 sequence (P61073 whole entry, the tested form may be a part): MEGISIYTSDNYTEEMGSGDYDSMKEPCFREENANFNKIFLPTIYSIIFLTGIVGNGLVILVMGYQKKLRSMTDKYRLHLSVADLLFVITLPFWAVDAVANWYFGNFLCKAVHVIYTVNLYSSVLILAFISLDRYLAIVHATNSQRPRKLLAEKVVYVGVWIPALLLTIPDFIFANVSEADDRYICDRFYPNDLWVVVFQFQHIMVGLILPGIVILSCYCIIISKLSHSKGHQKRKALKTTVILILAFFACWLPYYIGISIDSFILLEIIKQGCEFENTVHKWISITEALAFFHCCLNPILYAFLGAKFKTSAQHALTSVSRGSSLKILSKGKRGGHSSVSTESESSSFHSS
Method: FIGS. 6A-6F show Presto-Tango β-arrestin 2 recruitment assays for CXCR4 (A-C) and ACKR3 (D-F). RLU %: % of the luminescence signal for 1 μM CXCL12α. N=9 for CXCL12a and n=3 for all other proteins.
Presto-Tango β-arrestin 2 recruitment assay—The PRESTO-Tango (parallel receptorome expression and screening via transcriptional out-put, with transcriptional activation following arrestin translocation) assay was performed as recently described. The Tango plasmids were a gift from Dr. Bryan Roth (all from Addgene). HTLA cells (2.5×10^5/well) were seeded in a 6-well plate and transfected with 1.5 μg of the Tango plasmids using Lipofectamine 3000 (ThermoScientific). The following day, transfected HTLA cells (1×10^5 cells/well) were plated onto Poly-L-Lysine pre-coated 96-well micro-plates and allowed to attach to the plate surface for at least 4 hours prior to treatment. Proteins used for treatment were prepared in twice the final concentration in culture media, added at a 1:1 vol/vol ratio and incubated overnight at 37° C., 5% CO2 in a humidified environment. The following morning, media was removed from cell culture plates and replaced with a 100 μL 1:5 mixture of Bright-Glo (Promega) and 1×HBSS, 20 mM HEPES solution. Plates were then incubated at room temperature before measuring luminescence on a Biotek Synergy II plate reader.

[4] = target: CXCL12 (Homo sapiens, UniProt P48061); details: read-out: dimerization Kd; cited from earlier work
Sequence of CXCL12 (P48061 22-89 limits assumed): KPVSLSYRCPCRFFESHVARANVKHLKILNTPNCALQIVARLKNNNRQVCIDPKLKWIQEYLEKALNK

CXCL12: Wild-type CXCL12 (SEQ ID NO:1), cognate agonist of CXCR4 and ACKR3
effect on thrombin-mediated impairment of HULEC-5a barrier function when added after thrombin [1]: significantly reduced thrombin-mediated impairment of endothelial cell barrier function; also recorded: less efficacious in HULEC-5a cells than in hPPAEC
effect on hPPAEC monolayer permeability [2]: enhanced hPPAEC barrier function
potency (EC50) to recruit β-arrestin 2 to CXCR4, compared with CXCL12α [3]: no statistically significant differences
Kd [4]: 140 µM
